Test results from US10975119B2, “Selective cysteine protease inhibitors and uses thereof” (Genesis Technologies Limited, priority 2011, dated 2021).
pIC50: −log10 of the molar value. Counter-ions that a name gives are not always drawn. Like-named read-outs stand apart in the source and are kept apart here.

Columns and labels:
Assay type in all cases: biochemical
Caspase-3 = target: T1, Caspase-3 (Homo sapiens, UniProt P42574); assay: Caspase-3 inhibitor screening assay (BioVision kit, DEVD-AFC); details: for inhibition at 10 µM: read-out: % Inhibition at 10 uM Casp3; for inhibition at 100 µM: read-out: % Inhibition at 100 uM Casp3; for pIC50: read-out: IC50 Casp3
T1 construct: mixing the compounds with the respective active caspases; purchased BioVision K153-100
T1 sequence (P42574 29-175 limits assumed): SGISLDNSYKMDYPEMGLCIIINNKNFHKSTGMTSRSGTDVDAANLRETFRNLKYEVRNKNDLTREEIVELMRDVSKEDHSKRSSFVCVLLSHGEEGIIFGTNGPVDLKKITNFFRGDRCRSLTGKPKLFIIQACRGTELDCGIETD
T1 sequence (P42574 176-277 limits assumed): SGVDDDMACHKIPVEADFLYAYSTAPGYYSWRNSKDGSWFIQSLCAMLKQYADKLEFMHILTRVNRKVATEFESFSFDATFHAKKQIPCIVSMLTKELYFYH
Protocol: (§1) The efficacy of an array of compounds as an inhibitor of the activity of Caspases 1 through 10 were assessed by using the respective Caspase Inhibitor Drug Screening Kits (Caspase-1 Catalog #: K151-100, Caspase-2 Catalog #: K152-100, Caspase-3 Catalog #: K153-100, Caspase-4 Catalog #: K154-100, Caspase-5 Catalog #: K155-100, Caspase-6 Catalog #: K156-100, Caspase-7 Catalog #: K157-100, Caspase-8 Catalog #: K158-100, Caspase-9 Catalog #: K159-100, Caspase-10 Catalog #: K160-100, BioVision) following the instructions of the manufacturer. […] Active caspases cleaved their respective synthetic substrates to release free AFC, which was then quantified by fluorometry.
(§2) Briefly, the compounds were first tested at 2 concentrations (10 uM and 100 uM final) to determine if there is a hit. […] Each condition was tested in duplicates. […] For some samples, a smaller range of concentrations was tested depending on the % Inhibition results at 10 uM and 100 uM. Results were summarized in Tables 2, 3, and 4 herein after. Table 2 represents the IC50 values (uM) of the test compounds as inhibitors of the activity of the various caspases.
(§3) (*) RFU (no inhibitor control)—RFU (compound at a specific concentration)
(§4) RFU (no inhibitor control)

Caspase-4 = target: T2, Caspase-4 (Homo sapiens, UniProt P49662); assay: Caspase-4 inhibitor screening assay (BioVision kit, LEVD-AFC); details: for inhibition at 10 µM: read-out: % Inhibition at 10 uM Casp4; for inhibition at 100 µM: read-out: % Inhibition at 100 uM Casp4; for pIC50: read-out: IC50 Casp4
T2 construct: mixing the compounds with the respective active caspases; purchased BioVision K154-100
T2 sequence (P49662 81-270 limits assumed): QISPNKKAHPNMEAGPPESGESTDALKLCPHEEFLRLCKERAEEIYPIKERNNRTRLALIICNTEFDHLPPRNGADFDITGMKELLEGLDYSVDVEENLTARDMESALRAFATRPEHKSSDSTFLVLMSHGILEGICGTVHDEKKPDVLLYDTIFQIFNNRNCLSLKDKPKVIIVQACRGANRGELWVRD
T2 sequence (P49662 290-377 limits assumed): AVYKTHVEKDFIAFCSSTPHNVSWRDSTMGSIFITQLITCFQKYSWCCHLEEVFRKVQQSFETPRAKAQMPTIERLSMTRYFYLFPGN
Protocol: as §1, §2, §3, §4

Caspase-5 = target: T3, Caspase-5 (Homo sapiens, UniProt P51878); assay: Caspase-5 inhibitor screening assay (BioVision kit, WEHD-AFC); details: for inhibition at 10 µM: read-out: % Inhibition at 10 uM Casp5; for inhibition at 100 µM: read-out: % Inhibition at 100 uM Casp5; for pIC50: read-out: IC50 Casp5
T3 construct: mixing the compounds with the respective active caspases; purchased BioVision K155-100
T3 sequence (P51878 137-327 limits assumed): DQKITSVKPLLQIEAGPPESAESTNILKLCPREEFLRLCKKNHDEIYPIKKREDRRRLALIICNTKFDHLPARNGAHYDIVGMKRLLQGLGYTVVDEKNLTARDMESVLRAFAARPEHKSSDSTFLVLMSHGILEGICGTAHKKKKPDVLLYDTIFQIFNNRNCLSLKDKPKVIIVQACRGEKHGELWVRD
T3 sequence (P51878 347-434 limits assumed): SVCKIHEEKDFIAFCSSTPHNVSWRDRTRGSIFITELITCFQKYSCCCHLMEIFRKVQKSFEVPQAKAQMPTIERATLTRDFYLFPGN
Protocol: as §1, §2, §3, §4

Caspase-6 = target: T4, Caspase-6 (Homo sapiens, UniProt P55212); assay: Caspase-6 inhibitor screening assay (BioVision kit, VEID-AFC); details: for inhibition at 10 µM: read-out: % Inhibition at 10 uM Casp6; for inhibition at 100 µM: read-out: % Inhibition at 100 uM Casp6; for pIC50: read-out: IC50 Casp6
T4 construct: mixing the compounds with the respective active caspases; purchased BioVision K156-100
T4 sequence (P55212 24-179 limits assumed): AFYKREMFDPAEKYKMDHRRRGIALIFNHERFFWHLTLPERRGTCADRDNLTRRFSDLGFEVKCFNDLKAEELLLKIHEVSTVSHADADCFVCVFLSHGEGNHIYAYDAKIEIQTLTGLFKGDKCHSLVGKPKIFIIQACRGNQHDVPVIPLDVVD
T4 sequence (P55212 194-293 limits assumed): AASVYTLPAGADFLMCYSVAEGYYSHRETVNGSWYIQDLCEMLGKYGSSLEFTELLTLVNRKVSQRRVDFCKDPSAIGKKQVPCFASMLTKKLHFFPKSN
Protocol: as §1, §2, §3, §4

Caspase-7 = target: T5, Caspase-7 (Homo sapiens, UniProt P55210); assay: Caspase-7 inhibitor screening assay (BioVision kit, DEVD-AFC); details: for inhibition at 10 µM: read-out: % Inhibition at 10 uM Casp7; for inhibition at 100 µM: read-out: % Inhibition at 100 uM Casp7; for pIC50: read-out: IC50 Casp7
T5 construct: mixing the compounds with the respective active caspases; purchased BioVision K157-100
T5 sequence (P55210 24-198 limits assumed): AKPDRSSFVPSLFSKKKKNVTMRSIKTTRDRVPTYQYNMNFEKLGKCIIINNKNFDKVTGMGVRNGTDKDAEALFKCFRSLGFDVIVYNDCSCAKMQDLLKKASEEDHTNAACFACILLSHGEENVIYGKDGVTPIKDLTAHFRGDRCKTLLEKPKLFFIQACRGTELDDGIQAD
T5 sequence (P55210 207-303 limits assumed): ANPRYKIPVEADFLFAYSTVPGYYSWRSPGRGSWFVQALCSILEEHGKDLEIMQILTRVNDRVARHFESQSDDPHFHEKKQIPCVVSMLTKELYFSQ
Protocol: as §1, §2, §3, §4

Caspase-9 = target: T6, Caspase-9 (Homo sapiens, UniProt P55211); assay: Caspase-9 inhibitor screening assay (BioVision kit, LEHD-AFC); details: for inhibition at 10 µM: read-out: % Inhibition at 10 uM Casp9; for inhibition at 100 µM: read-out: % Inhibition at 100 uM Casp9; for pIC50: read-out: IC50 Casp9
T6 construct: purchased BioVision K159-100
T6 sequence (P55211 1-315 limits assumed): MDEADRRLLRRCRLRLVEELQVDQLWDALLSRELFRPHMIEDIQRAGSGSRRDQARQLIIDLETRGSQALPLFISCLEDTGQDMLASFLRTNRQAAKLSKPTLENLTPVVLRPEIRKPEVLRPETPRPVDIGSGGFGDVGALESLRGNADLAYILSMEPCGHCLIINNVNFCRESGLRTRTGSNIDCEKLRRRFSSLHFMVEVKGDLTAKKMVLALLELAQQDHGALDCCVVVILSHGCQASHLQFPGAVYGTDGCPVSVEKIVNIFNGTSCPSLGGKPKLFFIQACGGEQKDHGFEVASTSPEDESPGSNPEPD
T6 sequence (P55211 331-416 limits assumed): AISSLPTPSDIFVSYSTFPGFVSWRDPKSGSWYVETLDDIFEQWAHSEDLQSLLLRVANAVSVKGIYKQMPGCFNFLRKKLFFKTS
Protocol: as §1, §2, §3, §4

Structure (SMILES) | inhibition at 10 µM (Caspase-3) | inhibition at 100 µM (Caspase-3) | pIC50 (Caspase-3) | inhibition at 10 µM (Caspase-4) | inhibition at 100 µM (Caspase-4) | pIC50 (Caspase-4) | inhibition at 10 µM (Caspase-5) | inhibition at 100 µM (Caspase-5) | pIC50 (Caspase-5) | inhibition at 10 µM (Caspase-6) | inhibition at 100 µM (Caspase-6) | pIC50 (Caspase-6) | pIC50 (Caspase-7) | pIC50 (Caspase-9) | inhibition at 10 µM (Caspase-7; 10 uM) | inhibition at 100 µM (Caspase-7; 100 uM) | inhibition at 10 µM (Caspase-9; 10 uM) | inhibition at 100 µM (Caspase-9; 100 uM) | further results
CS(=O)(=O)/C(Cl)=C/[C@@H](N)CC(=O)O [Compound 4, Asp achlorovinyl methyl vinyl sulfone, Tosyl Salt] | 4% | 7% | < 4.00 | 0% | 0% | < 4.00 | 0% | 1% | < 4.00 | 0% | 0% | < 4.00 | < 4.00 | < 4.00 |  |  |  |  | inhibition at 10 µM (Caspase-7): 0%; inhibition at 100 µM (Caspase-7): 0%; inhibition at 10 µM (Caspase-9): 0%; inhibition at 100 µM (Caspase-9): 0%
CC(C)[C@H](NC(=O)[C@@H](NC(=O)[C@H](CC(=O)O)NC(=O)OCc1ccccc1)c1ccccc1)C(=O)N[C@H](/C=C/S(C)(=O)=O)CCC(=O)O [Compound 84, Z-Asp-Phg-Val-Glu methyl vinyl sulfone] | 39% | 88% | 4.82 | 0% | 0% | < 4.00 | 0% | 0% | < 4.00 | 0% | 5% | < 4.00 | 4.30 | < 4.00 | 9% | 76% | 0% | 6% | 
CS(=O)(=O)/C=C/[C@H](CC(=O)O)NC(=O)[C@@H](N)CCC(=O)O [Compound 22, Glu-Asp methylsulfone] | 0% | 0% | < 4.00 | 0% | 0% | < 4.00 | 11% | 0% | < 4.00 | 1% | 0% | < 4.00 | < 4.00 | < 4.00 | 0% | 0% | 2% | 0% | 
CC(C)[C@H](NC(=O)[C@H](CCC(=O)O)NC(=O)[C@H](Cc1c[nH]c2ccccc12)NC(=O)OCc1ccccc1)C(=O)N[C@H](/C=C/S(C)(=O)=O)CC(=O)O [Compound 40, Z-Trp-Glu-Val-Asp-methyl vinyl sulfone] | 63% | 94% | 5.18 | 100% | 100% | 6.74 | 95% | 100% | 6.12 | 7% | 51% | ~4.00 | 4.63 | 5.76 | 19% | 90% | 87% | 99% | 
CC(C)(C)[C@H](NC(=O)c1ccc2ncccc2c1)C(=O)N1CCCC1C(=O)N[C@H](/C=C/S(C)(=O)=O)CC(=O)O (stereo in doubt) [Compound 10, Quinoline-6-carbonyl-t-Leu-Pro-Asp methyl vinyl sulfone] | 12% | 16% | < 4.00 | 91% | 100% | 5.72 | 78% | 98% | 5.52 | 0% | 0% | < 4.00 | 4.27 | 5.49 | 3% | 73% | 76% | 98% | 
CCOC(=O)/C=C/[C@@H](N)CC(=O)O [Compound 44, Asp ethyl vinyl ester tosyl salt] | 0% | 0% | < 4.00 | 0% | 0% | < 4.00 | 0% | 0% | < 4.00 | 0% | 0% | < 4.00 | < 4.00 | < 4.00 | 0% | 0% | 0% | 0% | 
CC(C)[C@H](NC(=O)OCc1ccccc1)C(=O)N[C@H](/C=C(\Cl)S(C)(=O)=O)CC(=O)O [Compound 2, Cbz-Val-Asp achlorovinyl methyl vinyl sulfone] | 1% | 39% | < 4.00 | 0% | 6% | < 4.00 | 10% | 12% | < 4.00 | 1% | 19% | < 4.00 | 4.19 | 4.29 | 3% | 60% | 16% | 66% | % Inhibition at 100 uM Casp7 (Caspase-7; 100 uM): 72%; % Inhibition at 100 uM Casp9 (Caspase-9; 100 uM): 70%
